Source: patent US20140243302A1, “BRIDGED BICYCLIC COMPOUNDS FOR THE TREATMENT OF BACTERIAL INFECTIONS” (priority 2011, published 2014)
≈ marks a conversion by molar mass, not a printed value.

system: Staphylococcus aureus Smith; test: MIC assay, modified agar dilution (CLSI), S. aureus Smith; assay type: cell-based; conditions: Staphylococcus aureus, agar dilution, 35° C., 16-20 hr; lowest concentration that completely inhibited growth; read-out: S_aureus_Smith_WT_MIC
Method in brief: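 Strains were spotted at about 1×10^4 CFU onto compound-containing Mueller Hinton agar (two-fold series, 128-0.001 μg/mL), horse blood 5% added for pneumococcus and enterococcus. MIC read after 16-20 hr at 35 °C, following a modified CLSI agar dilution method.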

| Structure (SMILES) | MIC |
| --- | --- |
| Cc1ccc2ncc(=O)n(CCC34CCC(NCc5ccc6c(n5)NC(=O)CO6)(CC3)CO4)c2n1 [Example 126, 6-(((1-(2-(6-Methyl-3-oxopyrido[2,3-b]pyrazin-4(3H)-yl)ethyl)-2-oxabicyclo[2.2.2]octan-4-yl)amino)methyl)-2H-pyrido[3,2-b][1,4]oxazin-3(4H)-one] | 0.25 µg/mL (≈ 0.525 µM) |
| COC(=O)c1cnc2ccc(=O)n(CCC34CCC(NCc5ccc6c(n5)NC(=O)CO6)(CC3)CO4)c2c1.Cl [Example 127, Methyl 6-Oxo-5-(2-(4-((3-oxo-3,4-dihydro-2H-pyrido[3,2-b][1,4]oxazin-6-yl)methylamino)-2-oxabicyclo[2.2.2]octan-1-yl)ethyl)-5,6-dihydro-1,5-naphthyridine-3-carboxylate Hydrochloride] | 0.25 µg/mL |
| COc1ccc2ncc(F)c(NCC34CCC(NCc5ccc6c(n5)NC(=O)CO6)(CC3)CO4)c2n1 [Example 136, 6-({1-[(3-Fluoro-6-methoxy-[1,5]naphthyridin-4-ylamino)-methyl]-2-oxa-bicyclo[2.2.2]oct-4-ylamino}-methyl)-4H-pyrido[3,2-b][1,4]oxazin-3-one] | 0.25 µg/mL (≈ 0.506 µM) |
| COc1ccc2ncc(F)c(CC(O)(C(F)(F)F)C34CCC(NCc5ccc6c(n5)NC(=O)CO6)(CC3)CO4)c2n1 (stereo not drawn) [Example 138, 6-[({1-[1,1,1-Trifluoro-3-(3-fluoro-6-methoxy-1,5-naphthyridin-4-yl)-2-hydroxypropan-2-yl]-2-oxabicyclo[2.2.2]oct-4-yl}amino)methyl]-2H-pyrido[3,2-b][1,4]oxazin-3(4H)-one] | 0.5 µg/mL (≈ 0.866 µM) |
| COc1ccc2ncc(F)c(C[C@@H](O)C34CCC(NCc5ncc6c(n5)OCCO6)(CC3)CO4)c2n1 [Example 145, (R)-1-(4-((6,7-Dihydro-[1,4]dioxino[2,3-d]pyrimidin-2-yl)methylamino)-2-oxabicyclo[2.2.2]octan-1-yl)-2-(3-fluoro-6-methoxy-1,5-naphthyridin-4-yl)ethanol] | 0.25 µg/mL (≈ 0.502 µM) |
| COc1ccc2ncc(F)c(CCC34CCC(NCc5ccc6c(n5)OCCO6)(CC3)CO4)c2n1 [Example 146, N-((2,3-Dihydro-[1,4]dioxino[2,3-b]pyridin-6-yl)methyl)-1-(2-(3-fluoro-6-methoxy-1,5-naphthyridin-4-yl)ethyl)-2-oxabicyclo[2.2.2]octan-4-amine] | 0.125 µg/mL (≈ 0.26 µM) |
| COc1ccc2ncc(F)c(CC(O)C34CCC(NCc5ccc6c(n5)OCCO6)(CC3)CO4)c2n1 (stereo not drawn) [Example 147, 1-(4-((2,3-Dihydro-[1,4]dioxino[2,3-b]pyridin-6-yl)methylamino)-2-oxabicyclo[2.2.2]octan-1-yl)-2-(3-fluoro-6-methoxy-1,5-naphthyridin-4-yl)ethanol] | 0.125 µg/mL (≈ 0.252 µM) |
| COc1cc(OC)c2nccc(CCC34CCC(NCc5ccc6c(n5)NC(=O)CO6)(CC3)CO4)c2n1 [Example 150, 6-((1-(2-(6,8-Dimethoxy-1,5-naphthyridin-4-yl)ethyl)-2-oxabicyclo[2.2.2]octan-4-ylamino)methyl)-2H-pyrido[3,2-b][1,4]oxazin-3(4H)-one] | 0.5 µg/mL (≈ 0.989 µM) |
| CN(C)c1nc2c(CCC34CCC(NCc5ccc6c(n5)NC(=O)CO6)(CC3)CO4)ccnc2cc1F [Example 154, 6-((1-(2-(6-(Dimethylamino)-7-fluoro-1,5-naphthyridin-4-yl)ethyl)-2-oxabicyclo[2.2.2]octan-4-ylamino)methyl)-2H-pyrido[3,2-b][1,4]oxazin-3(4H)-one] | 1 µg/mL (≈ 1.97 µM) |
| COc1ccc2ncc(F)c(CC(F)C34CCC(NCc5ccc6c(n5)NC(=O)CO6)(CC3)CO4)c2n1 (stereo not drawn) [Example 157a, 6-[({1-[1-Fluoro-2-(3-fluoro-6-methoxy-1,5-naphthyridin-4-yl)ethyl]-2-oxabicyclo[2.2.2]oct-4-yl}amino)methyl]-2H-pyrido[3,2-b][1,4]oxazin-3(4H)-one] | 2 µg/mL (≈ 3.91 µM) |
| O=C1COc2ccc(CNC34CCC(C(O)Cc5c(F)cnc6ccc(OCCCO)nc56)(CC3)OC4)nc2N1 (stereo not drawn) [Example 158, 6-{[(1-{2-[3-Fluoro-6-(3-hydroxypropoxy)-1,5-naphthyridin-4-yl]-1-hydroxyethyl}-2-oxabicyclo[2.2.2]oct-4-yl)amino]methyl}-2H-pyrido[3,2-b][1,4]oxazin-3(4H)-one] | 0.125 µg/mL (≈ 0.226 µM) |

Results, then the compound that gave them:

| MIC | Structure (SMILES) |
| --- | --- |
| 0.125 µg/mL (≈ 0.26 µM) | COc1ccc2ncc(F)c(CCC34CCC(NCc5ncc6c(n5)OCCO6)(CC3)CO4)c2n1 [Example 144, N-((6,7-Dihydro-[1,4]dioxino[2,3-d]pyrimidin-2-yl)methyl)-1-(2-(3-fluoro-6-methoxy-1,5-naphthyridin-4-yl)ethyl)-2-oxabicyclo[2.2.2]octan-4-amine] |
| 0.063 µg/mL (≈ 0.129 µM) | N#Cc1cnc2ccc(=O)n(CCC34CCC(NCc5ccc6c(n5)NC(=O)CO6)(CC3)CO4)c2c1 [Example 128, 6-Oxo-5-(2-(4-((3-oxo-3,4-dihydro-2H-pyrido[3,2-b][1,4]oxazin-6-yl)methylamino)-2-oxabicyclo[2.2.2]octan-1-yl)ethyl)-5,6-dihydro-1,5-naphthyridine-3-carbonitrile] |
| 0.063 µg/mL (≈ 0.127 µM) | O=C1COc2ccc(CNC34CCC(CCn5c(=O)ccc6ncc(Cl)cc65)(CC3)OC4)nc2N1 [Example 129, 6-((1-(2-(7-Chloro-2-oxo-1,5-naphthyridin-1(2H)-yl)ethyl)-2-oxabicyclo[2.2.2]octan-4-ylamino)methyl)-2H-pyrido[3,2-b][1,4]oxazin-3(4H)-one] |
| 0.063 µg/mL (≈ 0.117 µM) | O=C1COc2ccc(CNC34CCC(CCn5c(=O)ccc6ncc(Br)cc65)(CC3)OC4)nc2N1 [Example 130, 6-((1-(2-(7-Bromo-2-oxo-1,5-naphthyridin-1(2H)-yl)ethyl)-2-oxabicyclo[2.2.2]octan-4-ylamino)methyl)-2H-pyrido[3,2-b][1,4]oxazin-3(4H)-one] |
| 0.063 µg/mL (≈ 0.121 µM) | CCOc1cc(C)c2ncc(F)c(CCC34CCC(NCc5ccc6c(n5)NC(=O)CO6)(CC3)CO4)c2n1 [Example 137, 6-[({1-[2-(6-Ethoxy-3-fluoro-8-methyl-1,5-naphthyridin-4-yl)ethyl]-2-oxabicyclo[2.2.2]oct-4-yl}amino)methyl]-2H-pyrido[3,2-b][1,4]oxazin-3(4H)-one] |
| 0.063 µg/mL (≈ 0.124 µM) | COc1cc(C)c2ncc(F)c(CCC34CCC(NCc5ccc6c(n5)NC(=O)CO6)(CC3)CO4)c2c1 [Example 139, 6-((1-(2-(3-Fluoro-6-methoxy-8-methylquinolin-4-yl)ethyl)-2-oxabicyclo[2.2.2]octan-4-ylamino)methyl)-2H-pyrido[3,2-b][1,4]oxazin-3(4H)-one] |
| 0.063 µg/mL (≈ 0.121 µM) | COc1cc(C)c2ncc(F)c(CC(O)C34CCC(NCc5ccc6c(n5)NC(=O)CO6)(CC3)CO4)c2c1 (stereo not drawn) [Example 140, 6-[({1-[2-(3-Fluoro-6-methoxy-8-methylquinolin-4-yl)-1-hydroxyethyl]-2-oxabicyclo[2.2.2]oct-4-yl}amino)methyl]-2H-pyrido[3,2-b][1,4]oxazin-3(4H)-one] |
| 0.063 µg/mL (≈ 0.123 µM) | COc1cc2c(CCC34CCC(NCc5ccc6c(n5)NC(=O)CO6)(CC3)CO4)c(F)cnc2cc1F [Example 141, 6-[({1-[2-(3,7-Difluoro-6-methoxyquinolin-4-yl)ethyl]-2-oxabicyclo[2.2.2]oct-4-yl}amino)methyl]-2H-pyrido[3,2-b][1,4]oxazin-3(4H)-one] |
| 0.063 µg/mL (≈ 0.124 µM) | COc1ccc2ncc(F)c(CC(O)C34CCC(NCc5cc6c(cn5)OCC(=O)N6)(CC3)CO4)c2n1 (stereo not drawn) [Example 149, 7-((1-(2-(3-Fluoro-6-methoxy-1,5-naphthyridin-4-yl)-1-hydroxyethyl)-2-oxabicyclo[2.2.2]octan-4-ylamino)methyl)-1H-pyrido[3,4-b][1,4]oxazin-2(3H)-one] |
| 0.063 µg/mL (≈ 0.128 µM) | COc1ccc2ccc(F)c(CCC34CCC(NCc5ccc6c(n5)NC(=O)CO6)(CC3)CO4)c2n1 [Example 153, 6-((1-(2-(7-Fluoro-2-methoxyquinolin-8-yl)ethyl)-2-oxabicyclo[2.2.2]octan-4-ylamino)methyl)-2H-pyrido[3,2-b][1,4]oxazin-3(4H)-one] |
| 0.063 µg/mL (≈ 0.12 µM) | COc1ccc2ncc(F)c(CC(O)C34CCC(NCc5ccc6c(n5)NC(=O)CS6)(CC3)CO4)c2n1 (stereo not drawn) [Example 156, 6-((1-(2-(3-Fluoro-6-methoxy-1,5-naphthyridin-4-yl)-1-hydroxyethyl)-2-oxabicyclo[2.2.2]octan-4-ylamino)methyl)-2H-pyrido[3,2-b][1,4]thiazin-3(4H)-one] |
| 0.031 µg/mL (≈ 0.0627 µM) | COc1ccc2ncc(F)c(CCC34CCC(NCc5ncc6c(n5)NC(=O)CO6)(CC3)CO4)c2n1 [Example 142, 2-((1-(2-(3-Fluoro-6-methoxy-1,5-naphthyridin-4-yl)ethyl)-2-oxabicyclo[2.2.2]octan-4-ylamino)methyl)-6H-pyrimido[5,4-b][1,4]oxazin-7(8H)-one] |
| 0.031 µg/mL (≈ 0.0607 µM) | COc1ccc2ncc(F)c(CC(O)C34CCC(NCc5ncc6c(n5)NC(=O)CO6)(CC3)CO4)c2n1 (stereo not drawn) [Example 143, 2-((1-(2-(3-Fluoro-6-methoxy-1,5-naphthyridin-4-yl)-1-hydroxyethyl)-2-oxabicyclo[2.2.2]octan-4-ylamino)methyl)-6H-pyrimido[5,4-b][1,4]oxazin-7(8H)-one] |
| 0.016 µg/mL | COc1ccc2ccc(=O)n(CCC34CCC(NCc5ccc6c(n5)NC(=O)CO6)(CC3)CO4)c2n1.Cl [Example 131, 6-((1-(2-(7-Methoxy-2-oxo-1,8-naphthyridin-1(2H)-yl)ethyl)-2-oxabicyclo[2.2.2]octan-4-ylamino)methyl)-2H-pyrido[3,2-b][1,4]oxazin-3(4H)-one Hydrochloride] |
| 0.016 µg/mL (≈ 0.0314 µM) | COc1ccc2ncc(F)c(CCC34CCC(NCc5ccc6c(n5)NC(=O)CS6)(CC3)CO4)c2n1 [Example 155, 6-((1-(2-(3-Fluoro-6-methoxy-1,5-naphthyridin-4-yl)ethyl)-2-oxabicyclo[2.2.2]octan-4-ylamino)methyl)-2H-pyrido[3,2-b][1,4]thiazin-3(4H)-one] |

same assay, conditions: agar dilution, 35° C., 16-20 hr; lowest concentration that completely inhibited growth

| Structure (SMILES) | S_aureus_Smith_WT_MIC |
| --- | --- |
| COc1ccc2ncc(F)c(CCC34CCC(NCc5cc6c(cn5)OCC(=O)N6)(CC3)CO4)c2n1 [Example 148, 7-((1-(2-(3-Fluoro-6-methoxy-1,5-naphthyridin-4-yl)ethyl)-2-oxabicyclo[2.2.2]octan-4-ylamino)methyl)-1H-pyrido[3,4-b][1,4]oxazin-2(3H)-one] | 0.0310 µg/mL |
